Read-outs that look alike come from different tables or passages of the source.
Legend:
[1] = system: Uncharacterized protein (W7JXH4); assay: iSPP profiling, P. falciparum lysate; type: binding, Plasmodium falciparum
Description: P. falciparum NF54 lysates were extracted as described in ^[26^] . The parasite asynchronous culture was extracted once 3-5% parasitemia was reached. Saponin lysis was done as described in 2.2.10. Once the parasite pellet was obtained, 2.5 volumes of ice-cold lysis buffer (50 mM Tris/HCl pH 7.5 (Avantor), 5% glycerol (Sigma-Aldrich), 150 mM NaCl (Carl Roth), 1.5 mM MgCl2 (Sigma-Aldrich), 1 mM DTT (Carl Roth), 0.8% IGEPAL CA-630 (Sigma-Aldrich), 1X Halt Protease and Phosphatase Inhibitor-Cocktails EDTA-free (Thermo Fisher Scientific)) was added to the parasite pellet. The lysate solution was subjected to three cycles of flash freeze-thaw with liquid nitrogen and ddH2O at RT. The lysates were centrifuged at 20,000 g for 20 minutes at 4 °C. The soluble protein fraction (supernatant) was collected and the protein content was quantified using the BCA assay (Pierce™ BCA Protein Assay Kit, Thermo Fisher Scientific). The lysate was stored at -80 °C until further use.
The P. falciparum lysate was thawed on ice and diluted to 0.8 mg/mL. […] Subsequently, the samples were incubated at room temperature for 30 minutes using a rotating mixer. After distribution into a 96-well plate, the samples were treated with increasing concentrations of A.E.A. (v/v) ranging from 14% to 28% (14, 16, 18, 20, 22, 24, 26, and 28%). Following a 20-minute incubation at 37°C with shaking at 750 rpm, the samples were centrifuged at 4400 g for 35 minutes to remove precipitated proteins. The soluble fractions were then pooled in equal volumes into a single sample using the Bravo Automated Liquid Handling Platform. The pooled samples were subsequently prepared for LC-MS/MS analysis.
The raw LFQ-DIA intensity values of biological replicates across all conditions were normalized to the median abundance using Excel. The normalized values were then log2 transformed in Perseus (v2.0.10.0).^[58^] Missing values were imputed from a normal distribution (width 0.3, down shift 1.5), and p-values were obtained using a two-sample t-test over replicates with a permutation-based false discovery rate correction (FDR 0.05). Volcano plots were generated in RStudio using the EnhancedVolcano package (v. 1.20.0), ^[59^] plotting proteins by statistical significance (y-axis: –Log10 p-value) versus the magnitude of change (x-axis: log2 fold change of protein intensities for each compound condition relative to the vehicle control). The heatmap was generated in Perseus (v2.0.10.0). Dose-dependent curves were generated using normalized protein intensity values, expressed as a ratio to the vehicle control. Plots were created in GraphPad Prism (v8.3.0) using a nonlinear regression model.

[2] = system: P. falciparum NF54 strain; assay: [3H]-hypoxanthine incorporation assay, asexual blood stage; type: cell-based, Plasmodium falciparum
Procedure, shortened: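 Parasites in human RBC were exposed to a 6-step twofold compound dilution in hypoxanthine-free medium (final parasitemia 0.3%, haematocrit 1.25%) at 37 °C under 3% O2/4% CO2. After 48 h, [3H]-hypoxanthine (0.25 µCi/well) was added for 24 h and uptake measured by scintillation counting. IC50 came from four-parameter curve fitting.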

[3] = Plasmodium falciparum, NF54, asexual blood stage, mean ± s.d., read-out: PfNF54 IC50 ± s.d.

CN1CCN(Cc2ccc(O)c(NC(=O)c3cccc(Oc4cc(C(F)(F)F)ccn4)c3)c2)CC1 [Compound 31, N-(2-hydroxy-5-((4-methylpiperazin-1-yl)methyl)phenyl)-3-((4-(trifluoromethyl)pyridin-2-yl)oxy)benzamide]
log2FC ([1]; 10 µM): 1.06 | log2FC ([1]; 50 µM): 0.61 | log2FC ([1]; 100 µM compound 31): 0.70 | log2FC ([1]; 10^-2 µM): 0.54 | log2FC ([1]; 10^-3 µM): 0.61 | IC50 ratio relative to NF54 strain ([2]; NF54): 1.00 | IC50 ([2]; Plasmodium falciparum, NF54, 72 h, Table S2, NF54 sensitive strain, 72-h assay, mean±s.d., read-out: IC50): 1.8 ± 0.3 nM | IC50 [2, 3]: < 5 nM | IC50 ([2]; asexual blood stage, mean ± s.d., read-out: PfNF54 IC50 ± s.d.): 3.9 nM

O=C(Nc1cc(CN2CCOCC2)ccc1F)c1cccc(Oc2cc(C(F)(F)F)ccn2)c1 [Compound 34, N-(2-Fluoro-5-(morpholinomethyl)phenyl)-3-((4-(trifluoromethyl)pyridin-2-yl)oxy)benzamide]
log2FC ([1]; 100 µM compound 34): 0.3904 | fold lower activity (control compound vs 31) ([2]; PfNF54 IC50): 1000 fold | IC50 [2, 3]: 3730 nM

From article PMC12668308, “A Novel Antimalarial Agent that Inhibits Protein Synthesis in Plasmodium falciparum” (Angewandte Chemie (International Ed. in English), 2025)
